Series [1] has as its system SJSA-1. As to the kind of experiment: Antitumor activity against human SJSA1 cells xenografted in BALB/c SLc-nu/nu mouse assessed as tumor growth inhibition at 25 mg/kg, po compound administered from day 17 to 20 (qdx4) measured on day 25 (reference value: 0%). The class given is functional. As to conditions: read-out: TGI. (In general: A xenograft is tissue or cells of one species grown in another, often human tumour cells in immunodeficient mice.)

Series [2] relates to Mus musculus. Nature of the series: Toxicity in human SJSA1 cells xenografted in BALB/c SLc-nu/nu mouse assessed as body weight loss at 50 mg/kg, po compound administered from day 17 to 20 (qdx4) measured on day 25 (reference value: <0%). The class given is organism-based, SJSA-1. The following applies: in vivo. On the set-up: dose 50 mg/kg, route oral.
The subject of series [3] is SJSA-1. As to the kind of experiment: Antitumor activity against human SJSA1 cells xenografted in BALB/c SLc-nu/nu mouse assessed as tumor growth inhibition at 12.5 mg/kg, po compound administered from day 17 to 20 (qdx4) measured on day 25 (reference value: 0%). In kind it is functional. The following applies: read-out: TGI.
The nature of series [4]: Plasma concentration in mouse at 100 mg/kg, po after 24 hrs. In kind it is ADME, organism-based. Also noted: dose 100 mg/kg, route oral.
A short description of series [5]: Metabolic stability in mouse hepatic microsome assessed as compound remaining measured at 1 uM after 30 mins by LC-MS/MS analysis. In kind it is ADME. As to conditions: liver microsomes, read-out: Stability. For orientation: Liver microsomes are a subcellular fraction often used to study metabolism.
For series [6], the system named is SJSA-1. As to the kind of experiment: Antitumor activity against human SJSA1 cells xenografted in BALB/c SLc-nu/nu mouse assessed as increase in p21 accumulation in tumor at 12.5 mg/kg, po single dose by Western blot analysis. In kind it is functional, organism-based. On the set-up: dose 12.5 mg/kg.
Series [7] can be described thus: Plasma concentration in mouse at 50 mg/kg, po after 24 hrs. In kind it is ADME, organism-based. Also noted: dose 50 mg/kg, route oral.
The nature of series [8]: Cmax in mouse at 50 mg/kg, po. In kind it is ADME, organism-based. On the set-up: dose 50 mg/kg, route oral. As to conditions: in vivo.
The nature of series [9]: Solubility in phosphate buffer at 10 mM at pH 6.8 by HPLC analysis. The class given is physicochemical.
Series [10] is described as follows: Plasma concentration in mouse at 25 mg/kg, po after 3 hrs. Also noted: dose 25 mg/kg, route oral. The class given is ADME, organism-based.
The nature of series [11]: AUC in mouse plasma at 25 mg/kg, po. On the set-up: dose 25 mg/kg, route oral. The class given is ADME, organism-based.
Series [12] can be described thus: AUC in mouse plasma at 50 mg/kg, po. In kind it is ADME, organism-based. Also noted: dose 50 mg/kg, route oral.
A short description of series [13]: Plasma concentration in mouse at 100 mg/kg, po after 3 hrs. On the set-up: dose 100 mg/kg, route oral. In kind it is ADME, organism-based.
Series [14] can be described thus: Plasma concentration in mouse at 50 mg/kg, po after 19 hrs. In kind it is ADME, organism-based. On the set-up: dose 50 mg/kg, route oral.
Series [15] is described as follows: AUC in mouse plasma at 100 mg/kg, po. The class given is ADME, organism-based. On the set-up: dose 100 mg/kg, route oral.
Series [16] relates to Mus musculus. As to the kind of experiment: Toxicity in human SJSA1 cells xenografted in BALB/c SLc-nu/nu mouse assessed as body weight loss at 100 mg/kg, po compound administered from day 17 to 20 (qdx4) measured on day 25 (reference value: <0%). The class given is organism-based, SJSA-1. Also noted: dose 100 mg/kg, route oral. The following applies: in vivo.
Series [17] can be described thus: Plasma concentration in mouse at 100 mg/kg, po after 19 hrs. The class given is ADME, organism-based. On the set-up: dose 100 mg/kg, route oral.
The test system of series [18] is SJSA-1. As to the kind of experiment: Antitumor activity against human SJSA1 cells xenografted in BALB/c SLc-nu/nu mouse assessed as increase in Mdm2 accumulation in tumor at 12.5 mg/kg, po single dose by Western blot analysis. In kind it is functional, organism-based. Also noted: dose 12.5 mg/kg.
A short description of series [19]: Plasma concentration in mouse at 100 mg/kg, po after 6 hrs. In kind it is ADME, organism-based. On the set-up: dose 100 mg/kg, route oral.
A short description of series [20]: Antiproliferative activity against human DLD1 cells expressing mutant p53 after 3 days by luminescent cell viability assay. The class given is cell-based, DLD-1.
In series [21] the test system is SJSA-1. Nature of the series: Antiproliferative activity against human SJSA1 cells expressing wildtype p53 after 3 days by luminescent cell viability assay. In kind it is functional. The following applies: SJSA-1, 72 h.
A short description of series [22]: Plasma concentration in mouse at 50 mg/kg, po after 6 hrs. The class given is ADME, organism-based. Also noted: dose 50 mg/kg, route oral.
The nature of series [23]: Plasma concentration in mouse at 50 mg/kg, po after 3 hrs. The class given is ADME, organism-based. On the set-up: dose 50 mg/kg, route oral.
Series [24] is described as follows: Plasma concentration in mouse at 25 mg/kg, po after 6 hrs. In kind it is ADME, organism-based. On the set-up: dose 25 mg/kg, route oral.
Series [25] has as its system SJSA-1. Nature of the series: Induction of apoptosis in human SJSA1 cells xenografted in BALB/c SLc-nu/nu mouse assessed as PARP cleavage in tumor at 12.5 mg/kg, po single dose by Western blot analysis. In kind it is functional, organism-based. On the set-up: dose 12.5 mg/kg.
In series [26] the test system is SJSA-1. As to the kind of experiment: Antitumor activity against human SJSA1 cells xenografted in BALB/c SLc-nu/nu mouse assessed as tumor growth inhibition at 50 mg/kg, po compound administered from day 17 to 20 (qdx4) measured on day 25 (reference value: 0%). As to conditions: read-out: TGI. The class given is functional.
Series [27] can be described thus: Cmax in mouse at 100 mg/kg, po. In kind it is ADME, organism-based. As to conditions: in vivo. On the set-up: dose 100 mg/kg, route oral.
Series [28] relates to SJSA-1. Nature of the series: Antitumor activity against human SJSA1 cells xenografted in BALB/c SLc-nu/nu mouse assessed as increase in p53 accumulation in tumor at 25 to 100 mg/kg, po single dose by Western blot analysis. The class given is functional, organism-based.
For series [29], the system named is Mus musculus. As to the kind of experiment: Toxicity in human SJSA1 cells xenografted in BALB/c SLc-nu/nu mouse assessed as body weight loss at 25 mg/kg, po compound administered from day 17 to 20 (qdx4) measured on day 25 (reference value: <0%). The class given is organism-based, SJSA-1. Also noted: dose 25 mg/kg, route oral. The following applies: in vivo.

Series [30] can be described thus: Cmax in mouse at 25 mg/kg, po. On the set-up: dose 25 mg/kg, route oral. The class given is ADME, organism-based. The following applies: in vivo.
Series [31] deals with Mus musculus. Nature of the series: Toxicity in human SJSA1 cells xenografted in BALB/c SLc-nu/nu mouse assessed as body weight loss at 12.5 mg/kg, po compound administered from day 17 to 20 (qdx4) measured on day 25 (reference value: <0%). In kind it is organism-based, SJSA-1. Also noted: dose 12.5 mg/kg, route oral. As to conditions: in vivo.
Series [32] concerns SJSA-1. Nature of the series: Antitumor activity against human SJSA1 cells xenografted in BALB/c SLc-nu/nu mouse assessed as tumor growth inhibition at 100 mg/kg, po compound administered from day 17 to 20 (qdx4) measured on day 25 (reference value: 0%). The class given is functional. As to conditions: read-out: TGI.

Here are results for eight compounds from ChEMBL document CHEMBL3400057, “Discovery of DS-5272 as a promising candidate: A potent and orally active p53-MDM2 interaction inhibitor” (Bioorg Med Chem, 2015).

Molecules are shown by their SMILES. In brackets after ≈: the same amount, converted by molar mass. Activity calls are given as the source filed them. The calls are words filed in the database; no cut-off is given here.

For orientation: Cmax means the peak of the concentration-time curve. Usually solubility stands for the dissolved amount per volume that the medium holds. Higher therefore signals a readily soluble substance. One may read the AUC as the area under the concentration-time curve, a measure of exposure. Usually GI50 stands for the concentration that inhibits growth by half. Regarding `CC[C@@H]1CNC2(CC2)CN1C(=O)[C@@H]1C[C@@H](F)CN1C(=O)C1=C(C(C)C)N2C(=N[C@@](C)(c3ccc(Cl)nc3)[C@H]2c2ccc(Cl)c(F)c2)S1`, the inhibition in vivo at 25 mg/kg with SJSA-1 [1] stood at 72.3%. Moreover, the Activity with Mus musculus [2] turned out to be 0.7%; with Mus musculus [16] it was 1.2%; in the series with Mus musculus [29], 0.2%; with Mus musculus [31], 0.2%. In addition, in the series on SJSA-1 [3], the inhibition in vivo at 12.5 mg/kg stood at 29.7%. In addition, the values for the concentration at 24 h in [4] and in series [7] were 10 ng/mL and 20 ng/mL, respectively. Further, the remaining at 0.5 h, 1 µM in series [5] came out at 84%. For the same compound, the outcome in the series with SJSA-1 [6], in the series with SJSA-1 [18], in the series with SJSA-1 [25] and in the series on SJSA-1 [28] was Active. Moreover, the highest concentration (Cmax) in series [8] was 15900 ng/mL; in series [27], 26100 ng/mL; in [30], 6000 ng/mL. Further, the solubility in series [9] is 420 µg/mL (≈ 597 µM). Also, the concentration at 3 h was 6000 ng/mL in series [10], 26100 ng/mL in series [13] and 15900 ng/mL in [23]. For the same compound, the AUC in series [11] worked out at 47.1 µg·h/mL; in series [12], 147 µg·h/mL; in series [15], 259 µg·h/mL. The concentration at 19 h was 10 ng/mL in [14] and 160 ng/mL in [17]. Besides, the concentration at 6 h in [19] came to 22300 ng/mL; in series [22], 12400 ng/mL; in series [24] it was 3600 ng/mL. Further, the 50% growth inhibitory concentration (GI50) at 72 h in series [20] is above 50000 nM. This compound also gave a GI50 in the series with SJSA-1 [21] of 170 nM. Moreover, in the series on SJSA-1 [26], the inhibition in vivo at 50 mg/kg was determined as 93.7%. Also, the inhibition in vivo at 100 mg/kg with SJSA-1 [32] came to 96.6%.
For `CC(C)C1=C(C(=O)N2[C@H](C)CC[C@H]2C(=O)N2CCNC3(CC3)C2)SC2=N[C@@](C)(c3ccc(Cl)cc3)[C@@H](c3ccc(Cl)cc3)N21`, the remaining at 0.5 h, 1 µM in series [5] was 87%. This compound also displayed a solubility in [9] of 56 µg/mL (≈ 85.8 µM). This compound had a 50% growth inhibitory concentration (GI50) at 72 h in [20] of 16200 nM. In the series with SJSA-1 [21], the GI50 is 650 nM.
The corresponding values for `CC(C)C1=C(C(=O)N2[C@H](C)CC[C@H]2C(=O)N2CCNC3(CC3)C2)SC2=N[C@@](C)(c3ccc(Cl)cc3)[C@@H](c3ccc(Cl)c(F)c3)N21` are 85%, 51 µg/mL (≈ 76 µM), 16700 nM and 350 nM.
The corresponding values for `CC(C)C1=C(C(=O)N2C[C@H](F)C[C@H]2C(=O)N2CC3(CC3)NC[C@@H]2C)SC2=N[C@@](C)(c3ccc(Cl)nc3)[C@@H](c3ccc(Cl)c(F)c3)N21` are 79%, 640 µg/mL (≈ 928 µM), above 50000 nM and 26 nM.
`CC(C)C1=C(C(=O)N2[C@H](C)CC[C@H]2C(=O)N2CCN(C)[C@H](C)C2)SC2=N[C@@](C)(c3ccc(Cl)cc3)[C@@H](c3ccc(Cl)cc3)N21`: the remaining at 0.5 h, 1 µM in series [5] was 74%. This compound showed a GI50 in the series with SJSA-1 [21] of 850 nM.
Consider `CC(C)C1=C(C(=O)N2[C@H](C)CC[C@H]2C(=O)N2CC3(CC3)NC[C@@H]2C)SC2=N[C@@](C)(c3ccc(Cl)nc3)[C@@H](c3ccc(Cl)c(F)c3)N21`, for which the remaining at 0.5 h, 1 µM in series [5] stood at 100%. Moreover, the solubility in series [9] amounted to 720 µg/mL (≈ 1050 µM). Also, the 50% growth inhibitory concentration (GI50) at 72 h in series [20] is above 50000 nM. Moreover, growth in the series on SJSA-1 [21] was halved (GI50) at 240 nM.
Regarding `CC(C)C1=C(C(=O)N2[C@H](C)CC[C@H]2C(=O)N2CCNC3(CC3)C2)SC2=N[C@@](C)(c3ccc(Cl)nc3)[C@@H](c3ccc(Cl)c(F)c3)N21`, the remaining at 0.5 h, 1 µM in [5] was found to be 80%. Also, the solubility in series [9] was found to be 330 µg/mL (≈ 491 µM). Moreover, in series [20], the GI50 at 72 h was above 50000 nM. This compound registered a GI50 with SJSA-1 [21] of 660 nM.
With `CC(C)C1=C(C(=O)N2[C@H](C)CC[C@H]2C(=O)N2CCN(C)C3(CC3)C2)SC2=N[C@@](C)(c3ccc(Cl)cc3)[C@@H](c3ccc(Cl)cc3)N21`, the remaining at 0.5 h, 1 µM in series [5] turned out to be 41%. The solubility in series [9] was 38 µg/mL (≈ 57 µM). The GI50 at 72 h in series [20] worked out at 17200 nM. In the series on SJSA-1 [21], this compound came in with a GI50 of 1080 nM.
